This is an account of results in PMC4046262 (Scientific Reports, 2014).

The term Kd denotes the free concentration of one partner at which half of the binding sites on the other are occupied at equilibrium, for simple one-to-one binding. A higher Kd goes with lower affinity.

Molecules are shown by their SMILES.

One assay has as its target AtCRY1 PHR (Arabidopsis thaliana, UniProt Q43125). Description: biochemical.
Assay [1] deals with full-length (wild-type) AtCRY1 (Arabidopsis thaliana, UniProt Q43125). Particulars: FAD-bound full-length protein; details only in supplement.
full-length (wild-type) AtCRY1, sequence (Q43125 whole entry): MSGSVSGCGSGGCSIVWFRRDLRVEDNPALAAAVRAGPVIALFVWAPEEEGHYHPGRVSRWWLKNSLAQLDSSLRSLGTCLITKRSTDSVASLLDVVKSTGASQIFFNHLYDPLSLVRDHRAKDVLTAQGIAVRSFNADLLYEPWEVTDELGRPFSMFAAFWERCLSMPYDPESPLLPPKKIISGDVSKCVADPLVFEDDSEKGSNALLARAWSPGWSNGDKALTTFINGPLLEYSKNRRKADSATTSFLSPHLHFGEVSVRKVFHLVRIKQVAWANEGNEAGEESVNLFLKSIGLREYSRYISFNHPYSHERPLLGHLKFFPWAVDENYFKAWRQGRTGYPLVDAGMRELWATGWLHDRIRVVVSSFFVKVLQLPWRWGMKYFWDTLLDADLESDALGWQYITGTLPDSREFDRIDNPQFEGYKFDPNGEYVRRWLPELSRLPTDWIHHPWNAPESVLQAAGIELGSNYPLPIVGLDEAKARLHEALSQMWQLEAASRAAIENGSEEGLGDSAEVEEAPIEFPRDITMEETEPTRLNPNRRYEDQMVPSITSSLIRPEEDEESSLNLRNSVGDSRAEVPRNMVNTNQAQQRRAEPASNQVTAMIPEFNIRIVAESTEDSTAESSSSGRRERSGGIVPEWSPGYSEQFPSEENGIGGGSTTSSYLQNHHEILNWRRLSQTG

AtCRY1 PHR, sequence (Q43125 1-509): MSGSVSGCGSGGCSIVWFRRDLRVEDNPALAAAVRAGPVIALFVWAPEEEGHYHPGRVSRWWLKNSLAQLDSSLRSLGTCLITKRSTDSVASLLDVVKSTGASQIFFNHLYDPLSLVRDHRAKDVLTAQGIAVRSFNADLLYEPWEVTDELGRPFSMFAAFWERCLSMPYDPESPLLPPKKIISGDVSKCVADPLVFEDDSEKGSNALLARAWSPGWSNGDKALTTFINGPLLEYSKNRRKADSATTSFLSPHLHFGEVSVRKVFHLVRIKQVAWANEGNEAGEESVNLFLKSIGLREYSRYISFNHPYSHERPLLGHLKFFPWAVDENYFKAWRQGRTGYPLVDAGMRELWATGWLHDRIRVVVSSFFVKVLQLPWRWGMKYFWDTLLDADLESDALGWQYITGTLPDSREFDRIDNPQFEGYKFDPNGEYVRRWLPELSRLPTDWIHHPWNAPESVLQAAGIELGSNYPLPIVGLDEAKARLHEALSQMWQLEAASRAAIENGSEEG

On AtCRY1 PHR, `Nc1ncnc2c1ncn2[C@@H]1O[C@H](COP(=O)(O)OP(=O)(O)OP(=O)(O)O)[C@@H](O)[C@H]1O` [ATP] had a Kd of 1.4 ± 0.6 µM. Also, the “UV-Vis and transient absorption with ATP (control experiments)” value in assay [1] was “we have not found any significant differences in their photoreactions”.
